{
  "source": "patent US11760764B2",
  "about": "“Methods and compositions for targeting PD-L1” (Aligos Therapeutics, Inc., priority 2020, dated 2023)",
  "key": {"[1]": {"target": "PD-1/PD-L1 interaction (PDL1-6×His protein, PD1-Fc-Avi-Biotin protein) (Homo sapiens, UniProt Q9NZQ7)", "sequence (Q9NZQ7 19-238 limits assumed)": "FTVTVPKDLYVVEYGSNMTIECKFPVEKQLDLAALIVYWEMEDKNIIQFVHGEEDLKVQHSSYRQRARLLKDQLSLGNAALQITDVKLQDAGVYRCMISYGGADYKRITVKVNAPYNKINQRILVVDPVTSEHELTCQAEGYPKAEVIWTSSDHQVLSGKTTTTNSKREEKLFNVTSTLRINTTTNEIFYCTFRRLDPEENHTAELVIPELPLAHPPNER", "experiment": "PDL1/PD1 Binding Assay", "conditions": "Table C-1; 0.3 nM PDL1, 2.5 nM PD1; read-out: Biological Data Biochem PD-1/PD-L1", "description": "Compounds to be tested were serially diluted in DMSO, and further diluted in assay buffer (25 mM Hepes pH 7.4, 150 mM NaCl, 0.005% Tween 20, BSA 0.01%). Diluted compounds were added to the wells with final concentration of DMSO at 1%. PDL1-6×His protein was added to the wells, mixed well with compound. The plates were incubated for 30 min at room temperature. PD1-Fc-Avi-Biotin protein was added to the wells. […] After a binding time of 30 min at room temperature, Anti-6×His Acceptor beads (final concentration 20 ug/ml) were added to the wells, and the incubation continued for 1 h. Streptavidin Donor beads (final concentration 20 ug/mL) were added at reduced light. The plates were sealed with foil and incubated in the dark for additional 1 h or overnight before reading on an Envision reader. The IC50s were determined by fitting the curves using a four-parameter equation in Graphpad Prism 8."}, "[2]": {"target": "T1, PD-1/PD-L1 interaction (Jurkat cells overexpressing PD-1 co-cultured with PD-L1 expressing CHO cells) (Homo sapiens, UniProt Q9NZQ7)", "T1 construct": "expressed in transfected cells; Jurkat cells (PD-1 and NF-AT luciferase construct)", "T1 sequence (Q9NZQ7 19-290)": "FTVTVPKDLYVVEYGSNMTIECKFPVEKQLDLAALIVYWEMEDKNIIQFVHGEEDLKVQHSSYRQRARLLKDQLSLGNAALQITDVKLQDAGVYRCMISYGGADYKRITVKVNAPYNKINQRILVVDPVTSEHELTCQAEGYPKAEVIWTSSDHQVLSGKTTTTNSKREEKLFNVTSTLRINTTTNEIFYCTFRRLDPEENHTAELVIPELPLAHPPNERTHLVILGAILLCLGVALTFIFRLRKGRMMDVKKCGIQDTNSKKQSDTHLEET", "experiment": "PD-1/PD-L1 NFAT Reporter Assay", "format": "cell-based", "conditions": "Table C-1; Jurkat/CHO co-culture, 6 hrs at 37° C., luciferase activity", "description": "Blocking the PD-1/PD-L1 interaction will release the inhibitory signal and results in TCR signaling and NFAT-mediated luciferase activity.\nCHO cells expressing surface-bound anti-CD3 antibodies and PD-L1 were first seeded overnight and treated with the compounds. Jurkat cells overexpressing PD-1 and a luciferase construct under NF-AT promoter were then immediately seeded on the monolayer of CHO cells. The co-culture was then incubated for 6 hrs at 37° C. Luciferase activity was assessed by adding the ONE-Glo reagent and measuring luminescence with a plate reader. EC50s values were determined from the fit of the dose-response curves"}},
  "data": [
    {"smiles": "COc1cc(-c2cccc(-c3cccc(-c4cc5c(c(OC)c4)C(N4CC(C(=O)O)C4)CC5)c3Cl)c2Cl)cc2c1C(N1CC(C(=O)O)C1)CC2", "note": "(centres unmarked) [Compound M-1B]", "values": [
      {"measurement": "IC50", "setting": "[1]", "value": "≤ 10", "unit": "nM"},
      {"measurement": "EC50", "setting": "[2]", "value": "100 to 1000", "unit": "nM"}
    ]}
  ]
}
